What all share (type): cell-based
One assay deals with cerebellum (M2 rich). Briefly: forskolin-stimulated cAMP in dissipated rat cerebellum. Conditions: in words. On the procedure:
(§1) Effects of compounds 6A and 7A were then measured ex vivo in dissipated rat tissues (FIG. 5). Accumulation of IPX was measured in dissipated brain cortex (rich in M1 & M3), submaxillary gland (M1 & M3), and ventral tegmental area (M5). Native tissues express about 10-times less muscarinic receptors than CHO cell lines. Accumulation of cAMP was measured in cerebellum (M2) and striatum (M4).
(§2) Rat dissipated tissues: Suspension of dissipated tissues from rat brain cortex, cerebellum, striatum, ventral tegmental area (VTA) and submaxillary glands was prepared as described previously in supplementary methods. Adult 8-weeks old male Wistar rats were scarified by cervical dislocation in accordance with current legislative and guidelines under permission of Czech Ministry of Agriculture 16OZ23113/2017-17214. Tissues were dissected immediately. Submaxillary glands were minced by scissors. Tissues were dispersed by incubation for 15 min at 37° C. in KHB supplemented with trypsin and trituration every 5 min. Large undissipated parts were removed by cell mesh. Then dissipated tissues were centrifuged 3 min at 250×g, re-suspended in KHB and centrifuged again to remove trypsin. Suspension of dissipated tissues was used immediately in experiments. Two submaxillary glands or about 400 mg of brain tissue was used a 96-sample assay.
(§3) Measurements of the production of cAMP and inositol phosphates: Levels of second messengers cAMP and inositol phosphates were determined in radiochemical chromatography assays as described previously. To determine level of cAMP, cells in suspension were pre-incubated for 1 h with 0.4 μM [^3H]adenine, washed, and incubated for 10 min in the presence of isobutylmethylxanthine and 10 μM forskolin. […] Incubation was ended by addition of 0.2 ml of 2.5 M HCl to the samples. Samples were applied to alumina columns (1.5 g of alumina per column), washed with 2 ml ammonium acetate (pH=7.0) and eluted from columns with 4 ml ammonium acetate and measured by liquid scintillation spectrometry. […] For this purpose, new CHO cell lines stably expressing promiscuous G15 G-protein and M2 or M4 receptor were generated by transfection with pCMV/hygro vector and hygromycin selection. To determine the rate of formation of inositol phosphates IPX, suspended cells were pre-incubated with 0.1 μM [^3H]myo-inositol for 60 min, washed, and incubated with 10 mM LiCl for 15 min. […] The incubation was stopped by addition of 0.5 ml of chloroform methanol HCl mixture (2:1:0.1). After separation of water and organic phases, 0.6 ml of water phase was applied to Dowex columns (1.5 g of Dowex per column), washed by 20 ml of 60 mM ammonium formate/5 mM sodium borate buffer and eluted from columns with 4 ml of 1M ammonium formate/0.1 formic acid buffer and measured by liquid scintillation spectrometry.
(§4) To exclude the possibility that the observed effects of compounds 6A and 7A are the result of overexpression in the heterologous system, functional response to the compounds was measured ex vivo in dissipated native rat tissues. […] Accumulation of IPX was measured in brain cortex, submaxillary gland, and ventral tegmental area (VTA) as brain cortex and submaxillary glands are rich in M1 and in M3 receptors, respectively, and VTA is the only region expressing significant amount of M5 receptors. Accumulation of cAMP was measured in M2-rich cerebellum and M4-rich striatum.

For a further assay, the target named is T1, M4 muscarinic receptor (Homo sapiens, UniProt P08173).
T1 sequence (P08173 1-479): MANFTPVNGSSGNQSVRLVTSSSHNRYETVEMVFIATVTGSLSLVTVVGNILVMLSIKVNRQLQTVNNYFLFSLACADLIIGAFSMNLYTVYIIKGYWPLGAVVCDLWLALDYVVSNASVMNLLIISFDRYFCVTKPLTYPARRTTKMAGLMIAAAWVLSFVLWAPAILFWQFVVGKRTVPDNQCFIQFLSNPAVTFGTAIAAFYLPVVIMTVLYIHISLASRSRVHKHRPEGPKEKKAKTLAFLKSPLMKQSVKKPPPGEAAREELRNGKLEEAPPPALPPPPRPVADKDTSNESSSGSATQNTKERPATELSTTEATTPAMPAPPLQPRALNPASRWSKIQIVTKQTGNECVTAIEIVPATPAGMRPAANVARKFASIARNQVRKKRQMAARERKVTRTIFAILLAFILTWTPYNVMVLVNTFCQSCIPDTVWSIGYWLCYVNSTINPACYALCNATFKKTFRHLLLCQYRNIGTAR
Kind of assay: accumulation of cAMP at PTX-treated CHO cells expressing M4. More on the design: host or cells: CHO cells, stably transfected. The note with it: forskolin-stimulated and basal, in words. On the procedure:
To exclude the possibility that activation of the non-preferential Gs pathway was obscured by activation of the preferential Gi/o pathway, accumulation of cAMP was measured in CHO cells expressing M2 or M4 receptors where Gi/o G-proteins were inactivated by pertussis toxin (PTX) treatment (FIG. 4).
Cell culture and membrane preparation: Chinese hamster ovary (CHO) cells stably transfected with the genes of individual human variants of muscarinic receptors were purchased from Missouri S&T cDNA Resource Center (Rolla, Mo., USA). Fresh primary cell culture of smooth muscle cells (SMC) from rat aorta prepared as previously described was kindly provided by Dr. Lucie Bačáková. Primary culture of SMCs was grown to confluency in 75 cm^2 flasks in Dulbecco's modified Eagle's medium supplemented with 10% fetal bovine serum. Up to 6-times, 2 million of cells were sub-cultured. […]
(§5) Measurements of the production of cAMP and inositol phosphates: Levels of second messengers cAMP and inositol phosphates were determined in radiochemical chromatography assays as described previously. […] Samples were applied to alumina columns (1.5 g of alumina per column), washed with 2 ml ammonium acetate (pH=7.0) and eluted from columns with 4 ml ammonium acetate and measured by liquid scintillation spectrometry. […] After separation of water and organic phases, 0.6 ml of water phase was applied to Dowex columns (1.5 g of Dowex per column), washed by 20 ml of 60 mM ammonium formate/5 mM sodium borate buffer and eluted from columns with 4 ml of 1M ammonium formate/0.1 formic acid buffer and measured by liquid scintillation spectrometry.
To exclude the possibility that activation of the non-preferential […] pathway was obscured by activation of the preferential Gi/o pathway, accumulation of cAMP was measured in CHO cells expressing M2 or M4 receptors where Gi/o G-proteins were inactivated by pertussis toxin (PTX) treatment (FIG. 11). […]

In assay [1] the test system is submaxillary gland (rich in M3). Kind of assay: accumulation of IPX in dissipated rat submaxillary gland. Conditions: in words. The method, then: as §1
as §2, with “Then dissipated tissues were centrifuged 3 min at 250×g, re-suspended in KHB and centrifuged again to remove trypsin. Suspension of dissipated tissues was used immediately in experiments. Two submaxillary glands or about 400 mg of brain tissue was used a 96-sample assay.” left out
as §5
To exclude the possibility that the observed effects of compounds 6A and 7A are the result of overexpression in the heterologous system, functional response to the compounds was measured ex vivo in dissipated native rat tissues. […] Accumulation of cAMP was measured in M2-rich cerebellum and M4-rich striatum.

A further assay relates to striatum (M4 rich). Kind of assay: forskolin-stimulated cAMP in dissipated rat striatum. The note with it: in words. On the procedure: as §1, §2, §3, §4

Structures are written as SMILES. Entries after “also recorded” stand apart in the source; their conditions may differ.

With `C[N+](C)(C)CCOC(N)=O` [carbachol, reference compound], the “forskolin-stimulated cAMP level” value in the assay on cerebellum (M2 rich) and in the assay on striatum (M4 rich) was “transient decrease in forskolin-stimulated cAMP level at nanomolar concentrations followed by an increase at micromolar concentrations; also recorded: transient decrease in forskolin-stimulated cAMP level at sub-micromolar concentrations followed by an increase at micromolar concentrations” each time. Besides, the “change in accumulation of cAMP” value on M4 muscarinic receptor is on record as “about two-fold increase”. In addition, the “accumulation of IPX” value in assay [1] is “profound accumulation of IPX”.

Turning to `C[N+]1(Cc2cccs2)CC=CCC1.[I-]` (stereo not shown) [Compound 7A, 1-methyl-1-[(thiophen-2-yl)methyl]-1,2,3,6-tetrahydropyridin-1-ium iodide], the “Emax of inhibition of cAMP synthesis” value in the assay on cerebellum (M2 rich) and with striatum (M4 rich) was “comparable to inhibition by carbachol” in each case. The “forskolin-stimulated cAMP level” value with cerebellum (M2 rich) and with striatum (M4 rich) was “only a decrease in cAMP level” throughout. For the same molecule, the “change in accumulation of cAMP” value on M4 muscarinic receptor is recorded as “did not change cAMP levels”. The “accumulation of IPX” value in assay [1] was “no increase in IPX levels”.

With `C1=CCN(Cc2cccs2)CC1.Cl` [Compound 6A, 1-[(thiophen-2-yl)methyl]-1,2,3,6-tetrahydropyridin-1-ium chloride], in the assay on cerebellum (M2 rich), the “Emax of inhibition of cAMP synthesis” value is reported as “comparable to inhibition by carbachol” and the “forskolin-stimulated cAMP level” value is “only a decrease in cAMP level”. On M4 muscarinic receptor, the “change in accumulation of cAMP” value is “did not change cAMP levels”. In assay [1], the “accumulation of IPX” value is recorded as “no increase in IPX levels”. In addition, in the assay on striatum (M4 rich), the “Emax of inhibition of cAMP synthesis” value was “comparable to inhibition by carbachol” and the “forskolin-stimulated cAMP level” value is given as “only a decrease in cAMP level”.
